Measurements: patent US20070249561A1, “Pharmacological method for treatment of neuropathic pain” (priority 2006, published 2007)
Values belong to the molecule of their own block, whether it stands above or below them.

Legend:
[1] = system: spared nerve injury (SNI) model of neuropathic pain in rats; test: Mechanical threshold (von Frey) to hindpaw withdrawal in spared nerve injury (SNI) rats; assay type: in vivo, rat; settings: for effect of agonist alone on latency to hindpaw withdrawal (mechanical): 100 μg intrathecal; for effect on behavioral signs of neuropathic pain (mechanical threshold / latency to hindpaw withdrawal): dose series
Text: (§1) Male Sprague-Dawley rats (Charles Rivers Laboratories, Inc) were used, and weighed 280-320 g at the time of surgery and intrathecal catheter implantation, and 340-380 g during pharmacological testing. Animals were housed in individual cages on a 12-hour light/dark cycle starting at 6 a.m., and were given food and water […]. All animal use protocols were approved by the Institutional Animal Care and Use Committee (IACUC) of Tulane University.
(§2) Neuropathic pain was modeled in rats using the spared nerve injury model (“SNI”), which is widely accepted as a model for neuropathic pain. To produce the model, rats were anesthetized with isoflurane (5% induction, then 1.5% maintenance in oxygen). As previously described, an incision was made in the skin at the level of the trifurcation of the left sciatic nerve (Decosterd et al., 2000). The overlying muscles were retracted, exposing the common peroneal, tibial, and sural nerves. The common peroneal and tibial nerves were ligated with 6-0 silk (Ethicon, Somerville, N.J.), and then the knot and adjacent nerve (2 mm) were transected. Care was taken to avoid touching the sural nerve branch. The muscle was then sutured with 4-0 absorbable sutures (Ethicon) and the wound was closed with metal clips.
(§3) At the time of nerve injury, animals were re-anesthetized with isoflurane (Baxter, Deerfield, Ill.), and then placed in a stereotaxic apparatus (Stoelting, Wood Dale, Ill.). As previously described (Malkmus et al., 2004), rats were implanted with polyethylene-10 (PE-10, Clay Adams, Sparks, Md.) intrathecal catheters. Briefly, the animal's head was flexed forward in the stereotaxic apparatus, an incision was made in the skin at the back of the head and neck, and the cisternal membrane was exposed by sharp dissection. The membrane was gently punctured with the tip of a #15 scalpel blade, and the distal end of a 7.5 cm long PE-10 catheter was passed through the opening in the cisternal membrane, into the intrathecal space. The catheter was loosely sutured to subcutaneous tissue, leaving the proximal end external to the animal and accessible to the experimenter, and the skin was then approximated using 4-0 absorbable sutures (Ethicon).
(§4) Following surgery, rats were allowed 7 days to recover prior to drug administration and experimentation. To minimize any effects of animal handling on experimental data, drugs and vehicle (saline, or saline and DMSO) were administered via remote injection. PE-10 tubing, filled with vehicle or drug, was used to connect a Hamilton microsyringe to a 30-gauge microinjector, through which 15-20 μL of vehicle or drug was delivered to the lumbar region of the spinal cord via the intrathecal catheter. Progress of the injection was visually confirmed by observing the movement of a small air bubble within the PE-10 tubing. Injectors were left in place an additional minute after fluid delivery, to minimize backflow within the catheter, and animals were then returned to the testing box.
(§5) All drug solutions were freshly prepared daily. After evaporating methyl acetate solvent under a gentle nitrogen stream, 15-deoxy-Δ^12,14 PGJ2 was reconstituted in isotonic saline (comprising 0.9% sodium chloride in water, also called “normal saline”). Rosiglitazone was diluted to the concentrations indicated in the FIGS. with a solution of 30% dimethylsulfoxide (DMSO) and 70% isotonic saline. 15-deoxy-Δ^12,14 PGJ2, rosiglitazone, BADGE, and DMSO were all obtained from Cayman Chemicals (Ann Arbor, Mich.). As used herein, the term “vehicle” refers to the solvent used to dilute the drugs, and may comprise without limitation, DMSO, saline, and water.
(§6) Data are presented as mean±standard error of the mean (SEM). Differences between means were analyzed by two-way repeated-measures analysis of variance (ANOVA), with drug treatment as the between-subjects variable and time as the repeated measure. […]

SNI rats = settings: rat, in vivo
[2] = system: spared nerve injury (SNI) model of neuropathic pain in rats; test: Cold allodynia (acetone drop, paw withdrawal duration) in SNI rats; assay type: in vivo, rat
Text: as §1, §2, §3, §4, §5, §6

[3] = system: spared nerve injury (SNI) model of neuropathic pain in mice; test: Mechanical threshold (von Frey) to hindpaw withdrawal in SNI mice; assay type: in vivo, mouse; settings: intrathecal
Procedure: (§7) Male CD1 mice (Charles Rivers Laboratories, Inc) were used, and weighed 18-22 g at the time of surgery, and 29-32 g during pharmacological testing. To produce the SNI model in mice, surgical procedures essentially identical to those used in rat were used. Unlike the rat SNI model, where an indwelling catheter was inserted surgically, vehicle or drugs were injected directly into the intrathecal space of the unanesthetized mouse using the classical method of Hylden and Wilcox (“Intrathecal morphine in mice: a new technique” Eur. J. Pharmacol. 17:313-6, 1980) to administer drugs to the intrathecal space dorsal to but not within the spinal cord. Briefly, a piece of cloth was used to restrain the mouse by cradling the iliac crest between one's thumb and forefinger. The L5-L6 spinal bones were located, and a 0.5 inch 30G hypodermic needle was inserted perpendicularly into the L4-L5 interspinous space. Upon insertion, the needle was angled about 30°-45° from the coronal (frontal) plane, and then advanced slightly. The needle angle was then adjusted gently, until paw or tail movement was evoked, whereupon the needle was held in position and 5 μL of saline or drug was administered via a 25 μL Hamilton syringe.
(§8) Data are presented as mean±standard error of the mean (SEM). Differences between means were analyzed by two-way repeated-measures analysis of variance (ANOVA), with drug treatment as the between-subjects variable and time as the repeated measure. If statistically significant differences (p<0.05) were detected, the analyses were followed by post hoc t-tests.
(§9) The procedures used to evaluate behavioral signs of mechanical and cold allodynia were essentially the same for rats as they were for mice. Animals were acclimated to a stainless steel grid within individual Plexiglas boxes for 30-60 minutes, and then tested for mechanical allodynia and cold allodynia. In all animals, mechanical allodynia was assessed using von Frey (VF) filaments (Stoelting, Inc), and was done before assessing cold allodynia.
To assess mechanical allodynia, the plantar region of each hind paw was stimulated with an incremental series of 8 different VF hairs (monofilaments of logarithmically varying stiffness). In SNI rats and mice, the stimulus region was localized to the sural innervation territory of the lateral aspect of the plantar hind paw. The 50% withdrawal threshold (“mechanical” threshold) was determined using the up-down method of Dixon, modified by Chaplan et al. (Chaplan et al., 1994). First, an intermediate von Frey monofilament (e.g., for rats, number 4.31 was used, which exerts a force of 2.0 g) was applied perpendicular to the plantar skin, causing a slight bending of the hair. […]

[4] = system: spared nerve injury (SNI) model of neuropathic pain in mice; test: Cold allodynia (acetone drop, paw withdrawal duration) in SNI mice; assay type: in vivo, mouse; settings: intrathecal
Procedure: as §7, §8, §9
Cold allodynia was evaluated by applying a drop of acetone to the plantar paw of control and SNI rats. Acetone was applied via a syringe connected to PE-90 tubing, flared at the tip to a diameter of 3.5 mm. Surface tension maintained the volume of the drop to 10-12 μL. The length of time the animal lifted or shook its paw was recorded. The duration of paw withdrawal was recorded for 30 seconds, and three observations were averaged. […] In such cases acetone testing was either terminated, or that data was not included in the final analysis.

[5] = Heneka et al. 2005; Maeshiba et al. 1997; cited from earlier work
[6] = system: animals subjected to sham SNI surgery; test: Accelerating rotarod test of motor coordination in sham SNI rats; assay type: in vivo, rat
Procedure: To evaluate the effect of PPARγ agonists on proprioceptive function, rats were placed on an accelerating rotarod (Stoelting, Wood Dale, III). The rotating rod was subdivided into four compartments for the simultaneous assessment of four animals. Initially rotating at a rate of 4 rpm, the system was adjusted gradually over 10 minutes to a maximum speed of 40 rpm. The time that a rat remained on the rotating rod without falling off was recorded—the rotarod duration. After sham SNI surgery and one day before testing, animals were acclimated to the rotarod for 5-10 trials, yielding average latencies of approximately 3 minutes. On the day of testing, rotarod duration was measured three times prior to drug or vehicle administration, and the times averaged. After drug administration, rotarod duration was measured in triplicate at 60 and 120 minutes from the time of administration, with durations averaged for each time point.
(§10) To assess more subtle behavioral effects, we evaluated the effects of rosiglitazone on motor coordination and sensory thresholds in uninjured rats.

[7] = system: animals subjected to sham SNI surgery; test: Sensory thresholds (mechanical, cold, infrared heat) in rats subjected to sham SNI surgery; assay type: in vivo, rat; settings: p>0.05
Procedure: as §9
To assess mechanical allodynia, the plantar region of each hind paw was stimulated with an incremental series of 8 different VF hairs (monofilaments of logarithmically varying stiffness). In SNI rats and mice, the stimulus region was localized to the sural innervation territory of the lateral aspect of the plantar hind paw. The 50% withdrawal threshold (“mechanical” threshold) was determined using the up-down method of Dixon, modified by Chaplan et al. (Chaplan et al., 1994). First, an intermediate von Frey monofilament (e.g., for rats, number 4.31 was used, which exerts a force of 2.0 g) was applied perpendicular to the plantar skin, causing a slight bending of the hair. In the event of a positive response (defined as rapid withdrawal of the paw within 6 seconds), a smaller filament was tested. In the event of a negative response, a larger filament was tested. The mechanical threshold is the smallest amount of force required to evoke a positive response. […] In such cases von Frey testing was either terminated, or that data was not included in the final analysis.
Cold allodynia was evaluated by applying a drop of acetone to the plantar paw of control and SNI rats. Acetone was applied via a syringe connected to PE-90 tubing, flared at the tip to a diameter of 3.5 mm. Surface tension maintained the volume of the drop to 10-12 μL. The length of time the animal lifted or shook its paw was recorded. The duration of paw withdrawal was recorded for 30 seconds, and three observations were averaged. […]
as §10

Compound: CCCCC/C=C/C=C1/C(=O)C=C[C@@H]1CC=CCCCC(=O)O (stereo in doubt) [15-deoxy-Δ^12,14 PGJ2, (Z)-7-[(1S,5E)-5-[(E)-oct-2-enylidene]-4-oxo-1-cyclopent-2-enyl]hept-5-enoic acid]
effect of agonist alone on latency to hindpaw withdrawal (mechanical) ([1]; SNI rats): increased latency to hindpaw withdrawal | dissipation of analgesic effect (mechanical threshold) ([1]; intrathecal, SNI rats): dissipated after four hours | onset of analgesic effect after injection (mechanical threshold) ([1]; intrathecal, SNI rats): ≤ 30 min | time of peak analgesic effect after injection (mechanical threshold) ([1]; intrathecal, SNI rats): about 60 minutes | ED50, log dose-response curve, mechanical threshold (hindpaw withdrawal) ([1]; intrathecal, SNI rats, 60 minutes after injection): 73.97 μg | effect on behavioral signs of neuropathic pain (mechanical threshold / latency to hindpaw withdrawal) ([1]; intrathecal, SNI rats): reduced behavioral signs of neuropathic pain | gross behavioral changes or other obvious deleterious effects (SNI rats): neither 15-deoxy-Δ^12,14 PGJ2 nor rosiglitazone produced gross behavioral changes or other obvious deleterious effects

Compound: CC(C)(c1ccc(OCC2CO2)cc1)c1ccc(OCC2CO2)cc1 (stereo not shown) [BADGE, bisphenol A diglycidyl ether]
effect of antagonist administered alone on hindpaw withdrawal latency ([1]; administered alone, SNI rats): did not have a significant effect on hindpaw withdrawal latency | ED50, log dose-response curve, block of 15-deoxy-Δ^12,14 PGJ2-induced elevation of mechanical threshold ([1]; intrathecal co-administration with 100 μg 15-deoxy-Δ^12,14 PGJ2, 60 minutes after injection, SNI rats): 11.44 μg | effect of co-administered antagonist on analgesic effects of 15-deoxy-Δ^12,14 PGJ2 (mechanical threshold) ([1]; intrathecal co-administration with 100 μg 15-deoxy-Δ^12,14 PGJ2, SNI rats): eliminated the analgesic effects of 15-deoxy-Δ^12,14 PGJ2 | effect of co-administered antagonist on rosiglitazone analgesia (mechanical hypersensitivity) ([1]; intrathecal co-administration with 100 μg rosiglitazone, SNI rats): eliminated the analgesic effects of 100 μg rosiglitazone on mechanical hypersensitivity in a dose-dependent manner | effect of co-administered antagonist on rosiglitazone analgesia (cold hypersensitivity) ([2]; intrathecal co-administration with 100 μg rosiglitazone): dose-dependently eliminated the analgesic effects of rosiglitazone

Compound: CCc1ccc(CCOc2ccc(CC3SC(=O)NC3=O)cc2)nc1 (stereo not shown) [pioglitazone, 5-[[4-[2-(5-ethylpyridin-2-yl)ethoxy]phenyl]methyl]thiazolidine-2,4-dione]
onset of anti-allodynic effect after injection (mechanical threshold) ([3]; 150 μg dose): ≤ 30 min | time after which anti-allodynic effect dissipated (mechanical threshold) ([3]; 150 μg dose): 90 min | time of peak anti-allodynic effect after injection (mechanical threshold) ([3]; 150 μg dose): 30 min | effect on behavioral signs of neuropathic pain (threshold to hindpaw withdrawal, von Frey) ([3]; dose series): reduced behavioral signs of neuropathic pain in a dose-dependent and reversible manner | onset of analgesic effects after injection (cold allodynia) [4]: ≤ 30 min | time of most pronounced analgesic effects (cold allodynia) [4]: approximately 60 minutes | time within which analgesic effects began to dissipate (cold allodynia) [4]: ≤ 90 min | effect on cold hypersensitivity (paw withdrawal duration after acetone) ([4]; dose series): decreased cold hypersensitivity in a dose-dependent and reversible manner | ability to cross the blood brain barrier [5]: can cross the blood brain barrier

effect on cold response [7]: does not affect | effect on latency to paw withdrawal response to an infrared heat (IR) stimulus [7]: does not affect | effect on mechanical threshold [7]: does not affect
Compound: CN(CCOc1ccc(CC2SC(=O)NC2=O)cc1)c1ccccn1 (stereo not shown) [rosiglitazone, 5-[[4-[2-(methyl-pyridin-2-yl-amino)ethoxy]phenyl]methyl]thiazolidine-2,4-dione]
effect of agonist alone on latency to hindpaw withdrawal (mechanical) ([1]; SNI rats): reduced behavioral signs of neuropathic pain in a reversible manner | dissipation of analgesic effect (mechanical threshold) ([1]; intrathecal, SNI rats): dissipated after four hours | onset of analgesic effect after injection (mechanical threshold) ([1]; intrathecal, SNI rats): ≤ 30 min | time of peak analgesic effect after injection (mechanical threshold) ([1]; intrathecal, SNI rats): about 90 minutes | effect on behavioral signs of neuropathic pain (mechanical threshold / latency to hindpaw withdrawal) ([1]; intrathecal, SNI rats): reduced behavioral signs of neuropathic pain in a dose-dependent and reversible manner | effect of agonist alone on cold hypersensitivity ([2]; 100 μg intrathecal): decreased cold hypersensitivity in a reversible manner | dissipation of analgesic effects (cold allodynia) ([2]; intrathecal): dissipated after four hours | onset of analgesic effects after injection (cold allodynia) ([2]; intrathecal): ≤ 30 min | time of most pronounced analgesic effects (cold allodynia) ([2]; intrathecal): approximately 90 minutes | effect on cold hypersensitivity (paw withdrawal duration after acetone) ([2]; intrathecal, dose series): decreased cold hypersensitivity in a dose-dependent and reversible manner | effect on motor coordination (rotarod), supra-maximal dose ([6]; 1000 μg): reduced motor coordination, but this effect was small, not statistically significant | effect on motor coordination (rotarod) ([6]; p>0.05): does not affect | gross behavioral changes or other obvious deleterious effects (SNI rats): neither 15-deoxy-Δ^12,14 PGJ2 nor rosiglitazone produced gross behavioral changes or other obvious deleterious effects
